# Test results as given in US8680062B2, “System for delivering therapeutic agents into living cells and cells nuclei” (Deliversir Ltd., priority 2004, dated 2014).
# How the values were obtained:
# DNA polymerase I = DNA polymerase I (Escherichia coli, UniProt P00582); details: 90 minute time point; 5.4 Kb plasmid, 15° C., 3H-dGTP counting
# Description: At each time point of interest, 2 μl from the reaction mixture were withdrawn, spotted on glass fiber filters (GF/C), washed once with 10% trichloroacetic acid (TCA) and twice with 5% TCA, and with alcohol and was thereafter dried. The filters were loaded to a liquid scintillation counter for measurements of the progression of the polymerase reaction and the relative level of incorporation.
# rTh polymerase = target: T1, rTh polymerase (Thermus thermophilus, UniProt P52028); experiment: PCR polymerase assay of modified nucleotide as substrate in place of dTTP; assay type: biochemical; details: typical PCR conditions, Taq, Vent, Pfu and rTh polymerases tested
# T1 construct: purchased
# Excerpt: The modified nucleotides described above were tasted in polymerase assays to determine their compatibility as substrates for polymerase reactions. The modified nucleotide Compound 7 (modified dUTP), served as a substrate in place of deoxythymidinetriphosphate, dTTP, for thermostable DNA polymerases using typical PCR conditions. Commercially available thermostable DNA polymerases from […] were used in the assays: Taq from Thermus aquaticus, Vent from Thermococcus litoralis, Pfu from Pyrococcus furiosus, and rTh from Thennus thennophilus.
# DNA polymerase I, sequence (P00582 whole entry): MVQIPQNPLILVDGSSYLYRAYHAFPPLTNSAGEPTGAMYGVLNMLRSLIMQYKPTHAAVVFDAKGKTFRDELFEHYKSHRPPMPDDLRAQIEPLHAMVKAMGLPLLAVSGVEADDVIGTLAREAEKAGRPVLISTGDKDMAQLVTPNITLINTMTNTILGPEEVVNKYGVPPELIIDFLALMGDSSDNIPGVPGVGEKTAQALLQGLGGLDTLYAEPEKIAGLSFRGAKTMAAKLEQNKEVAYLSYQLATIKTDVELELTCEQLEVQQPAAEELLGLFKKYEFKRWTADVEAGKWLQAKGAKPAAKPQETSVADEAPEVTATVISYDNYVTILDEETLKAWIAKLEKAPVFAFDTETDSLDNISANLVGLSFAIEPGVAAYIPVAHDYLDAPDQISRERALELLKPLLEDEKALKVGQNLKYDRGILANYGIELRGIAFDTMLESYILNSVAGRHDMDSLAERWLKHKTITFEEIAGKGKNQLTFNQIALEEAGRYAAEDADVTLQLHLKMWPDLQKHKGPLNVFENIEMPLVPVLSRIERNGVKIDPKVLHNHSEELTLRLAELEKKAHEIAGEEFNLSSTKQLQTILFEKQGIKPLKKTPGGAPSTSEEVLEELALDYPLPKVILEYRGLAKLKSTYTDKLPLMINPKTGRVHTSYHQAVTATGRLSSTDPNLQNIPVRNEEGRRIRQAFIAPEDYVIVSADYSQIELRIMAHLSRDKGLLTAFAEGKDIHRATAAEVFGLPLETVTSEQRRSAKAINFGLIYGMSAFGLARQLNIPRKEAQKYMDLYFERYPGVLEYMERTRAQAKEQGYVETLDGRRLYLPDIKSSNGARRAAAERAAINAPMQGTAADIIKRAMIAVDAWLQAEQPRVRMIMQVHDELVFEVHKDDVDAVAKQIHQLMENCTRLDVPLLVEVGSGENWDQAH
# T1 sequence (P52028 whole entry): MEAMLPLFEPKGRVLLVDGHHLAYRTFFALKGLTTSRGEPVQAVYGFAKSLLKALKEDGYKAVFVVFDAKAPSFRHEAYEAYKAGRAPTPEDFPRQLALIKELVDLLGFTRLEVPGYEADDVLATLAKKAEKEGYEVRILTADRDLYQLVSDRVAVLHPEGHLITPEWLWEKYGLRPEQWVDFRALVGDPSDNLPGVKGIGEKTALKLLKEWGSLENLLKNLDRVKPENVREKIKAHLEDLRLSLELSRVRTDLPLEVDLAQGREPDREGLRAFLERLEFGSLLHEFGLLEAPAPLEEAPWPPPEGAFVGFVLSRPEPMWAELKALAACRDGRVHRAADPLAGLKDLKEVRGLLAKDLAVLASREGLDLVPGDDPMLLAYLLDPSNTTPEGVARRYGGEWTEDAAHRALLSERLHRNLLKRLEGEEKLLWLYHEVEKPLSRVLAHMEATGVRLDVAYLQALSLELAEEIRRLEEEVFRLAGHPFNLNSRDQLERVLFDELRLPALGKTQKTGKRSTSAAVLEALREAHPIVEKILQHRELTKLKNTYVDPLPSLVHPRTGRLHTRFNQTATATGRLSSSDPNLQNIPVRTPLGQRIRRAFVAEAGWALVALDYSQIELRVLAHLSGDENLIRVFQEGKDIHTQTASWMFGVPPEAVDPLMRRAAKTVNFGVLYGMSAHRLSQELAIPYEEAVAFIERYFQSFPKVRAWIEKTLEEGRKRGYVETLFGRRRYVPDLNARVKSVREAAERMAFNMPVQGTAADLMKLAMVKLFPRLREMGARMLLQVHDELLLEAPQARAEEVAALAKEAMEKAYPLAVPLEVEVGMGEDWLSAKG
Compound,relative levels of incorporation of the modified deoxynucleotides (DNA polymerase I),incorporation into PCR product as polymerase substrate (rTh polymerase)
urocanic acid modified dCTP [Compound 11],44%,
"NCCCCCCNc1ncnc2c1ncn2[C@H]1C[C@H](O)[C@@H](COP(=O)(O)OP(=O)(O)OP(=O)(O)O)O1 [N^6-aminohexyl dATP, reference compound]",70%,
"NC/C=C/c1cn(C2CC(O)C(COP(=O)(O)OP(=O)(O)OP(=O)(O)O)O2)c(=O)[nH]c1=O (stereo not shown) [Compound 7, 5′-triphosphate-5-(3-aminopropen-1-yl)deoxyuridine]",,incorporation into a 561 base pair product only with rTh polymerase
urocanic acid modified dUTP [Compound 8],54%,
